This is an account of results in patent publication US20260327193A1, “INHIBITORS OF PLASMA KALLIKREIN” (Rezolute, Inc., priority 2022, published 2026).

SMILES strings stand for the structures. Some results are limits rather than exact numbers.

The target in test [1] is T1, Plasma Kallikrein (Homo sapiens, UniProt P03952). The test is described as follows: Plasma kallikrein activity in pooled human plasma. Type of test: biochemical. Also on record: Plasma Kallikrein activity was also measured in pooled human plasma; from tissue; host or cells: pooled human plasma. Conditions: Z-FR-AMC substrate, activated with 10% Actin FS solution, 10 minutes, read-out: Pooled Human Plasma PKal IC50. Here is the method:
(§1) Plasma kallikrein protease inhibition assay. Two methods for determining the IC50 of a test compound against Plasma Kallikrein are provided.
Second, Plasma Kallikrein activity was also measured in pooled human plasma. First, a 10% Actin FS solution was prepared in assay buffer. Each test compound was dissolved in DMSO and delivered to the reaction mixture along with Z-FR-AMC substrate and pooled human plasma. The multi-well reaction plate was incubated for five minutes at room temperature. To initiate the reaction, the 10% Actin FS solution was added to each well, and kinetic measurements were taken at Ex/Em at 355/460 nm. The fluorescence signal was recorded every 30 seconds for a total of 10 minutes.

The target in test [2] is T1, Plasma Kallikrein. The test can be described thus: Plasma kallikrein protease inhibition assay, purified enzyme. Type of test: biochemical. Also on record: NS0-derived Gly20-Ala638, with a C-terminal 60-His tag; 60-His (so in the source) (C); purchased R&D Systems 2497-SE; host or cells: Mouse myeloma cell line, NS0. Conditions: 10 μM Z-FR-AMC substrate, 20-minute pre-incubation, pH 8.0/8.5, room temperature, read-out: Purified PKal IC50. The method, then:
as §1
In the first method was used a reaction buffer composed of 25 mM Tris-HCl (pH 8.0), 100 mM NaCl (pH 8.5), 0.01% Brij35, and 1% DMSO (final). The enzyme used was Plasma Kallikrein (R&D Systems Cat #2497-SE; Recombinant Human Plasma Kallikrein, expressed in Mouse myeloma cell line, NS0-derived Gly20-Ala638, with a C-terminal 60-His tag. MW=70 kDa).
The enzyme was activated by dilution to 200 μg/mL in activation buffer (100 mM Tris, 10 mM CaCl2, 150 mM NaCl, pH 7.5 (TCN), and then combined with an equal volume of 20 μg/mL thermolysin to form a reaction buffer. Each test compound was then dissolved in DMSO and delivered into the reaction buffer. The reaction was initiated by delivering a substrate solution containing 10 μM Z-FR-AMC (Enzo Cat #P-139; AMC: 7-Amino-4-methylcoumarin) into the reaction well after a 20-minute pre-incubation period.
Measurement was conducted with En Vision (PE) with excitation and emission wavelengths of 355 nm and 460 nm, respectively. […]. The enzyme activities were monitored every 5 minutes as a time-course measurement of the increase in signal from fluorescently labeled peptide substrate for 120 minutes at room temperature.
Data was analyzed by taking slope*(signal/time) of the linear portion of measurements. Slope was calculated using Excel, and curve fits were performed using Prism software.

T1 sequence (P03952 391-638 limits assumed): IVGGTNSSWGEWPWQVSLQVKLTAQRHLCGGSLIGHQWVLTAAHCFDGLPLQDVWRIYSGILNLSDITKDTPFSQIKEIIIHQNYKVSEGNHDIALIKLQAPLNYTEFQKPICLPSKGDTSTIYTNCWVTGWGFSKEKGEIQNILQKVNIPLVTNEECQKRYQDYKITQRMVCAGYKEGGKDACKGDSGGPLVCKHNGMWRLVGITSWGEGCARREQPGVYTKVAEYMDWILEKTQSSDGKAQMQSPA
T1 sequence (P03952 20-390 partner limits assumed): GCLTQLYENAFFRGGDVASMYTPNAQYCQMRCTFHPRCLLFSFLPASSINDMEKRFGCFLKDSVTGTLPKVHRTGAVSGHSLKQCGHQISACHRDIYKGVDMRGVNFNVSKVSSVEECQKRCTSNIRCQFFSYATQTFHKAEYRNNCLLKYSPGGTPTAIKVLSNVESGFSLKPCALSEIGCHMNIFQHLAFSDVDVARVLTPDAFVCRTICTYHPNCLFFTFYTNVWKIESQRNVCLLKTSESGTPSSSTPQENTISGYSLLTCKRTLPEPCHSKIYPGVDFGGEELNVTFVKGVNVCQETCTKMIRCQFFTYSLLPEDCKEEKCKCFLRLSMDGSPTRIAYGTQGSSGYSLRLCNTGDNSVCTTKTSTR

Regarding `COCc1c(C(=O)NCc2ccc(C(=N)N)cc2)cnn1Cc1ccc(C(C)(C)C#N)cc1` [Example 82, N-(4-carbamimidoylbenzyl)-1-(4-(2-cyanopropan-2-yl)benzyl)-5-(methoxymethyl)-1H-pyrazole-4-carboxamide], the figures for the IC50 at Plasma Kallikrein [1] and on Plasma Kallikrein [2] were less than 100 nM and 10 to 100 nM, respectively.
As to `CCCc1c(C(=O)NCc2ccc(C(=N)N)cc2)ncn1Cc1ccc(C(C)(C)C#N)cc1` [Example 84, N-(4-carbamimidoylbenzyl)-1-(4-(2-cyanopropan-2-yl)benzyl)-5-propyl-1H-imidazole-4-carboxamide], the figures for the IC50 at Plasma Kallikrein [1] and at Plasma Kallikrein [2] were greater than 1000 nM and greater than 100 nM, respectively.
Regarding `N#CCc1ccc(Cc2cc(C(=O)NCc3ccc(C(=N)N)cc3)sn2)cc1` [Example 11], the IC50 (usually the concentration needed to halve the response being measured) on Plasma Kallikrein [2] was 1 to 10 nM.
In the case of `COCCc1cccc(Cn2cc(C(=O)NCc3ccc(C(=N)N)cc3)cn2)c1` [Example 69, N-(4-carbamimidoylbenzyl)-1-(3-(2-methoxyethyl)benzyl)-1H-pyrazole-4-carboxamide], the IC50 on Plasma Kallikrein [1] was less than 100 nM; at Plasma Kallikrein [2], 1 to 10 nM.
Turning to `COCc1ccc(Cn2cc(C(=O)NCc3ccc(C(=N)N)cc3)cn2)cc1` [Example 71, N-(4-carbamimidoylbenzyl)-1-(4-(methoxymethyl)benzyl)-1H-pyrazole-4-carboxamide], the IC50 at Plasma Kallikrein [1] is less than 100 nM; at Plasma Kallikrein [2], less than 1 nM.
Consider `N#CCc1ccc(Cn2cc(C(=O)NCc3ccc(C(=N)N)c(F)c3)cn2)cc1` [Example 72, N-(4-carbamimidoyl-3-fluorobenzyl)-1-(4-(cyanomethyl)benzyl)-1H-pyrazole-4-carboxamide], for which the IC50 at Plasma Kallikrein [1] is 100 to 1000 nM; on Plasma Kallikrein [2], 10 to 100 nM.
Consider `CNC(=O)Cc1ccc(Cn2cc(C(=O)NCc3ccc(C(=N)N)c(F)c3)cn2)cc1` [Example 74, N-(4-carbamimidoyl-3-fluorobenzyl)-1-(4-(2-(methylamino)-2-oxoethyl)benzyl)-1H-pyrazole-4-carboxamide], for which the IC50 lay within 100 to 1000 nM on Plasma Kallikrein [1] and 1 to 10 nM on Plasma Kallikrein [2].
Regarding `N=C(N)c1ccc(CNC(=O)c2cnn(Cc3ccc(CO)cc3)c2)cc1` [Example 2, N-(4-carbamimidoylbenzyl)-1-(4-(hydroxymethyl)benzyl)-1H-pyrazole-4-carboxamide], the IC50 at Plasma Kallikrein [1] is less than 100 nM; on Plasma Kallikrein [2], 1 to 10 nM.
As for `N#CCc1ccccc1Cn1cc(C(=O)NCc2ccc(C(=N)N)cc2)cn1` [Example 70, N-(4-carbamimidoylbenzyl)-1-(2-(cyanomethyl)benzyl)-1H-pyrazole-4-carboxamide], the IC50 at Plasma Kallikrein [1] lay within 100 to 1000 nM; on Plasma Kallikrein [2], 10 to 100 nM.
Regarding `N#CCc1ccc(Cn2ncc(C(=O)NCc3ccc(C(=N)N)cc3)c2C2CC2)cc1` [Example 86, N-(4-carbamimidoylbenzyl)-1-(4-(cyanomethyl)benzyl)-5-cyclopropyl-1H-pyrazole-4-carboxamide], the IC50 on Plasma Kallikrein [1] was in the range of 100 to 1000 nM; on Plasma Kallikrein [2] it was 10 to 100 nM.
Turning to `CC(C)(C#N)c1ccc(Cn2ncc(C(=O)NCc3ccc(C(=N)N)cc3)c2C2CC2)cc1` [Example 83, N-(4-carbamimidoylbenzyl)-1-(4-(2-cyanopropan-2-yl)benzyl)-5-cyclopropyl-1H-pyrazole-4-carboxamide], the IC50 on Plasma Kallikrein [1] was in the range of 100 to 1000 nM; at Plasma Kallikrein [2], 10 to 100 nM.
On the same counts, the results for `Cc1c(C(=O)NCc2ccc(C(=N)N)cc2)cnn1Cc1ccc(C(C)(C)C#N)cc1` [Example 81, N-(4-carbamimidoylbenzyl)-1-(4-(2-cyanopropan-2-yl)benzyl)-5-methyl-1H-pyrazole-4-carboxamide] are less than 100 nM and less than 1 nM.
For `N#Cc1ccc(-c2ccc(Cn3cc(C(=O)NCc4ccc(C(=N)N)cc4)cn3)cc2)cc1` [Example 13, N-(4-carbamimidoylbenzyl)-1-((4′-cyano-[1,1′-biphenyl]-4-yl)methyl)-1H-pyrazole-4-carboxamide], the figures for the IC50 at Plasma Kallikrein [1] and on Plasma Kallikrein [2] were less than 100 nM and less than 1 nM, respectively.
On to `COCCc1ccc(Cn2cc(C(=O)NCc3ccc(C(=N)N)c(F)c3)cn2)cc1` [Example 73, N-(4-carbamimidoyl-3-fluorobenzyl)-1-(4-(2-methoxyethyl)benzyl)-1H-pyrazole-4-carboxamide], for which the IC50 is less than 100 nM at Plasma Kallikrein [1] and 1 to 10 nM on Plasma Kallikrein [2].
For the compound `N#Cc1ccc(Cc2ccc(Cn3cc(C(=O)NCc4ccc(C(=N)N)cc4)cn3)cc2)cc1` [Example 14, N-(4-carbamimidoylbenzyl)-1-(4-(4-cyanobenzyl)benzyl)-1H-pyrazole-4-carboxamide], the IC50 was 100 to 1000 nM at Plasma Kallikrein [1] and less than 1 nM on Plasma Kallikrein [2].
As for `N#CCc1ccc(Cc2cc(C(=O)NCc3ccc(C(=N)N)cc3)on2)cc1` [Example 10, N-(4-carbamimidoylbenzyl)-3-(4-(cyanomethyl)benzyl) isoxazole-5-carboxamide], the 50% inhibitory concentration (IC50) at Plasma Kallikrein [2] is 1 to 10 nM.
With `CC(C)(C#N)c1ccc(Cn2cc(C(=O)NCc3cc(F)c(C(=N)N)c(F)c3)cn2)cc1` [Example 44, N-(4-carbamimidoyl-3,5-difluorobenzyl)-1-(4-(2-cyanopropan-2-yl)benzyl)-1H-pyrazole-4-carboxamide], the results for the IC50 on Plasma Kallikrein [1] and on Plasma Kallikrein [2] were greater than 1000 nM and greater than 100 nM, respectively.
Consider `CC(C#N)c1ccc(Cn2cc(C(=O)NCc3ccc(C(=N)N)cc3)cn2)cc1` (stereo not drawn) [Example 5, N-(4-carbamimidoylbenzyl)-1-(4-(1-cyanoethyl)benzyl)-1H-pyrazole-4-carboxamide], for which, at Plasma Kallikrein [2], the IC50 is 1 to 10 nM.
With `COCc1c(C(=O)NCc2ccc(C(=N)N)cc2)cnn1Cc1ccc(CC#N)cc1` [Example 85, N-(4-carbamimidoylbenzyl)-1-(4-(cyanomethyl)benzyl)-5-(methoxymethyl)-1H-pyrazole-4-carboxamide], the figures for the IC50 at Plasma Kallikrein [1] and on Plasma Kallikrein [2] were 100 to 1000 nM and 10 to 100 nM, respectively.
As to `COCc1c(C(=O)NCc2ccc(C(=N)N)c(F)c2)cnn1Cc1ccc(CC#N)cc1` [Example 75, N-(4-carbamimidoyl-3-fluorobenzyl)-1-(4-(cyanomethyl)benzyl)-5-(methoxymethyl)-1H-pyrazole-4-carboxamide], the IC50 is greater than 1000 nM at Plasma Kallikrein [1] and greater than 100 nM on Plasma Kallikrein [2].
Consider `N#Cc1ccn(-c2ccc(Cn3cc(C(=O)NCc4ccc(C(=N)N)cc4)cn3)cc2)c1` [Example 25, N-(4-carbamimidoylbenzyl)-1-(4-(3-cyano-1H-pyrrol-1-yl)benzyl)-1H-pyrazole-4-carboxamide], for which the IC50 on Plasma Kallikrein [1] was less than 100 nM; at Plasma Kallikrein [2], less than 1 nM.
